Experimental findings from patent US9296720B2, “Carboxamide-substituted heteroaryl-pyrazoles and the use thereof” (AiCuris GmbH & Co. KG, priority 2011, dated 2016) are described below.

Some results are limits rather than exact numbers.

Type in all cases: cell-based
One assay concerns HIV-1NL4-3 Wild Type. The assay is described as follows: Luminescence reduction assay, MT4 cells infected with HIV-1NL4-3 luciferase reporter virus, wild type. Conditions: Human immunodeficiency virus 1, MT4, MT4 cells, 2% FCS. From the text: (§1) For this assay, HIV-1NL4-3 reporter viruses are used, which carry the luciferase164 gene (lu164) instead of the nef gene. The viruses are generated by transfection of 293T cells with the corresponding proviral pNL4-3 plasmid (Lipofectamine Reagent, Invitrogen, Karlsruhe, Germany). Starting from the proviral plasmid-DNA, viruses with defined resistance mutations in the reverse transcriptase gene are produced with the “QuikChange II XL Site-Directed Mutagenesis Kit” (Stratagene, Cedar Creek, Tex., USA). Among other things, the following mutations are generated: A98G, A98G-K103N-V108I, A98S, F227C, F227L, G190A, G190S, K101E, K101Q-K103N, K103N, K103N-F227L, K103N-G190A, K103N-G190S, K103N-M230L, K103N-N348I, K103N-P225H, K103N-V108I, K103N-V108I-P225H, K103N-V179F-Y181C, K103N-Y181C, K103N-Y181C-G190A, L100I, L100I-K103N, L100I-K103N-V179I-Y181C, L100I-K103N-Y181C, L234I, N348I, P225H, P236L, V106A, V106A-E138K, V106A-F227C, V106A-F227L, V106I, V106I-Y188L, V106M, V108I, V179F-Y181C, V179I, V179I-Y181C, Y181C, Y181C-G190A, Y181C-M230L, Y181I, Y188L. MT4 cells infected with these reporter viruses (NIH AIDS Research and Reference Reagent Program) secrete luciferase into the medium, which makes possible the luminometric quantification of the virus replication.
(§2) For the batch of a 96-well MTP, 3 million MT4 cells are pelletized, suspended in 1 ml of RPMI 1640 medium without phenol red (Invitrogen, Karlsruhe, Germany)/10% FCS/2 mmol of L-glutamine/1% Pen/Strep (Invitrogen, Karlsruhe, Germany), and incubated together with a suitable amount of the corresponding HIV-1NL4-3 reporter virus for 2 hours at 37° C. (pellet infection). Non-adsorbed viruses are then washed out with PBS, the infected cells are pelletized again, and suspended in 8 ml of RPM 11640 medium without phenol red/2% or 10% FCS/2 mmol of L-glutamine/1% Pen/Strep. Therefrom, 80 μl per well is pipetted into a white 96-well MTP in 20 μl of test substance in a suitable dilution. In order to avoid boundary effects, the edge wells of the MTP are not used for substance dilutions. The second vertical row of the MTP contains only infected cells (virus control), and the eleventh vertical row contains only non-infected cells (cell control) in each case in RPMI 1640 medium without phenol red/2% or 10% FCS/2 mmol of L-glutamine/1% Pen/Strep. The other wells of the MTP contain the compounds according to the invention in different concentrations starting from the third vertical row, from which dilution of the test substances is carried out 3^7 times in three steps up to the tenth vertical row. The test substances are dissolved in DMSO, whereby the DMSO final concentration in the test batch is ultimately 1%. The test batches are incubated for 5 days at 37° C./5% CO2, and are luminometrically evaluated after the addition of 15 μl of Lu164-buffer (65 mmol of NaCl, 300 mmol of MES, pH 5.8, 5 mmol of glutathione and 1:200 coelenterazine (5 mg/ml in 30 μM of glutathione/DMSO) (P.J.K. GmbH, Kleinblittersdorf, Germany)). In the virus control, the resulting values are in the range of 1 million RLUs (relative light units), and in the cell control, the resulting values are 300 to 400 RLUs. The EC50 values of the test substances are determined as the concentration of the treated infected cells, in which the virus replication measured in RLUs is 50% of the untreated infected cells.
A general note: A reporter such as luciferase makes a cellular process visible.

The next assay deals with HIV-1NL4-3 K103N-Y181C. The assay is described as follows: Luminescence reduction assay, MT4 cells infected with HIV-1NL4-3 luciferase reporter virus, RT mutant K103N-Y181C. Conditions: Human immunodeficiency virus 1, MT4, read-out: EC50 (μM) MT4 Cells HIV-1NL4-3 K103N-Y181C 2% FCS, MT4 cells, HIV-1NL4-3 K103N-Y181C, 2% FCS.
Text: as §1, §2

In the next assay the test system is HIV-1LAI Wild Type. The assay is described as follows: AlamarBlue viability assay, HIV-1LAI-infected MT4 cells. Conditions: Human immunodeficiency virus 1, MT4, MT4 cells, 10% FCS. The method, then:
For the batch of a 96-well MTP, 3 million PBLs are pelletized, suspended in 1 ml of RPMI 1640 medium/10% FCS/2 mmol of L-glutamine/1% Pen/Strep, and incubated together with a suitable amount of HIV-1LA1 (NIH AIDS Research & Reference Reagent Program, Germantown, USA) for 2 hours at 37° C. (pellet infection). Non-adsorbed viruses are then washed out with PBS, the infected cells are pelletized again, and suspended in 18 ml of RPMI 1640 medium/10% FCS/2 mmol of L-glutamine/1% Pen/Strep/interleukin-2 (40 U/ml). Therefrom, 180 μl per well is pipetted into a white 96-well MTP in 20 μl of test substance in a suitable dilution. As an alternative, after preparation of the substance dilutions, the HIV is added by pipetting in the MTP together with the cells and is no longer washed out (supernatant infection). In order to avoid boundary effects, the edge wells of the MTP are not used for substance dilutions. The second vertical row of the MTP contains only infected cells (virus control), and the eleventh vertical row contains only non-infected cells (cell control) in each case in RPMI 1640 medium/10% FCS/2 mmol of L-glutamine/1% Pen/Strep/interleukin-2 (40 U/ml). The other wells of the MTP contain the compounds according to the invention in different concentrations starting from the third vertical row, from which dilution of the test substances is carried out 3^7 times in three steps up to the tenth vertical row. The test substances are dissolved in DMSO, whereby the DMSO final concentration in the test batch is ultimately 1%. The test batches are incubated at 37° C./5% CO2. After 5 and 7 days, in each case 50 μl of cell-free supernatant is drawn off from each well in order to determine the amount of p24 contained by means of p24 ELISA (HIV-1 p24^CA Antigen Capture Assay Kit, NCI-Frederick Cancer Research and Development Center, Frederick, USA). From the resulting values of the photometric analysis (450/620 nm), the EC50 values of the test substances are determined as the concentration of the treated infected cells, in which the amount of p24 is 50% of the untreated infected cells.
As an alternative, MT4 cells are used for testing test substances instead of PBLs. HIV-1LA1-infected MT4 cells (MOI 0.01, supernatant infection) are incubated according to the above-described pattern in RPMI 1640 medium with 2% or 10% FCS/2 mmol of L-glutamine/1% Pen/Strep in the presence of test substances for 5 days at 37° C./5% CO2 (20 μl of substance dilution and 80 μl of cells/virus per well). Then, 10 μl of AlamarBlue (Invitrogen, Karlsruhe, Germany) is added to each well, and MTPs are incubated for 3 hours at 37° C., before the fluorimetric analysis is done (544/590 nm). The resulting values are approximately 30,000 in the case of untreated, non-infected cells, and approximately 6,000 in the case of untreated infected cells. In the low concentration range, the EC50 values of the test substances are determined as the concentration of the treated infected cells, in which the fluorescence is 50% of the untreated non-infected cells (in each case relative to the values of the untreated infected cells). In addition, in the high concentration range, the CC50 values of the test substances are determined as the concentration of the treated infected cells, in which the fluorescence is 50% of the untreated, non-infected cells (in each case relative to the values of the untreated infected cells).

With `O=C1CN(C(=O)c2cc(-c3cc(F)cc(Cl)c3)n(-c3ccnc(Cl)c3)n2)CCN1` [Example 15, 4-{[5-(3-Chloro-5-fluorophenyl)-1-(2-chloropyridin-4-yl)-1H-pyrazol-3-yl]carbonyl}piperazin-2-one], the EC50 (in general, the concentration at which the effect is half-maximal) came to 0.018 µM in the assay on HIV-1NL4-3 Wild Type, 0.452 µM with HIV-1NL4-3 K103N-Y181C and 0.151 µM with HIV-1LAI Wild Type.

Turning to `O=C1CN(C(=O)c2cc(-c3cc(F)cc(Cl)c3)n(-c3ccnc(C(F)(F)F)c3)n2)CN1` [Example 16, 1-({5-(3-Chloro-5-fluorophenyl)-1-[2-(trifluoromethyl)pyridin-4-yl]-1H-pyrazol-3-yl}carbonyl)imidazolidin-4-one], the EC50 with HIV-1NL4-3 Wild Type is 0.055 µM; in the assay with HIV-1NL4-3 K103N-Y181C it was 0.339 µM; in the assay on HIV-1LAI Wild Type, 0.49 µM.

Take `O=C1CN(C(=O)c2cc(-c3cc(F)cc(Cl)c3)n(-c3ccnc(C(F)(F)F)c3)n2)CCN1` [Example 17]: the values for the EC50 with HIV-1NL4-3 Wild Type, in the assay with HIV-1NL4-3 K103N-Y181C and in the assay with HIV-1LAI Wild Type were 0.248 µM, more than 3.3 µM and 3.67 µM, respectively.

Consider `O=C(c1cc(-c2cc(F)cc(Cl)c2)n(-c2ccnc(C(F)(F)F)c2)n1)N1CCSC1` [Example 18], for which the EC50 is 0.284 µM with HIV-1NL4-3 Wild Type, more than 3.3 µM with HIV-1NL4-3 K103N-Y181C and more than 3.3 µM with HIV-1LAI Wild Type.

`O=C(c1cc(-c2cc(F)cc(Cl)c2)n(-c2ccnc(C(F)(F)F)c2)n1)N1CC[S+]([O-])C1` (stereo not drawn) [Example 19, {5-(3-Chloro-5-fluorophenyl)-1-[2-(trifluoromethyl)pyridin-4-yl]-1H-pyrazol-3-yl}(1-oxido-1,3-thiazolidin-3-yl)methanone]: the results for the EC50 in the assay with HIV-1NL4-3 Wild Type, in the assay with HIV-1NL4-3 K103N-Y181C and in the assay on HIV-1LAI Wild Type were 0.152 µM, more than 3.3 µM and 2.5 µM, respectively.

Consider `O=C(c1cc(-c2cc(F)cc(Cl)c2)n(-c2ccnc(C(F)(F)F)c2)n1)N1CCS(=O)(=O)C1` [Example 20, {5-(3-Chloro-5-fluorophenyl)-1-[2-(trifluoromethyl)pyridin-4-yl]-1H-pyrazol-3-yl}(1,1-dioxido-1,3-thiazolidin-3-yl)methanone], for which the EC50 in the assay with HIV-1NL4-3 Wild Type is 0.162 µM; in the assay on HIV-1NL4-3 K103N-Y181C, 1.39 µM; with HIV-1LAI Wild Type, 1.46 µM.

Take `Cc1cc(-n2nc(C(=O)N3CNC(=O)C3)cc2-c2cc(F)cc(Cl)c2)ccn1` [Example 21, 1-{[5-(3-Chloro-5-fluorophenyl)-1-(2-methylpyridin-4-yl)-1H-pyrazol-3-yl]carbonyl}imidazolidin-4-one]: the half-maximal effective concentration (EC50) with HIV-1NL4-3 Wild Type was determined as 0.092 µM; with HIV-1NL4-3 K103N-Y181C, 0.436 µM; with HIV-1LAI Wild Type, 0.397 µM.

For `Cc1cc(-n2nc(C(=O)N3CCNC(=O)C3)cc2-c2cc(F)cc(Cl)c2)ccn1` [Example 22, 4-{[5-(3-Chloro-5-fluorophenyl)-1-(2-methylpyridin-4-yl)-1H-pyrazol-3-yl]carbonyl}piperazin-2-one], the values for the EC50 in the assay on HIV-1NL4-3 Wild Type, in the assay on HIV-1NL4-3 K103N-Y181C and in the assay on HIV-1LAI Wild Type were 0.375 µM, more than 3.3 µM and 3.18 µM, respectively.

`Cc1cc(-n2nc(C(=O)N3CCSC3)cc2-c2cc(F)cc(Cl)c2)ccn1` [Example 23, [5-(3-Chloro-5-fluorophenyl)-1-(2-methylpyridin-4-yl)-1H-pyrazol-3-yl](1,3-thiazolidin-3-yl)methanone]: the results for the EC50 in the assay on HIV-1NL4-3 Wild Type, in the assay with HIV-1NL4-3 K103N-Y181C and in the assay with HIV-1LAI Wild Type were 0.439 µM, more than 3.3 µM and more than 3.3 µM, respectively.

For the compound `Cc1cc(-n2nc(C(=O)N3CC[S+]([O-])C3)cc2-c2cc(F)cc(Cl)c2)ccn1` (stereo not drawn) [Example 24, [5-(3-Chloro-5-fluorophenyl)-1-(2-methylpyridin-4-yl)-1H-pyrazol-3-yl](1-oxido-1,3-thiazolidin-3-yl)methanone], the EC50 was 0.066 µM with HIV-1NL4-3 Wild Type, more than 3.3 µM with HIV-1NL4-3 K103N-Y181C and 0.668 µM in the assay with HIV-1LAI Wild Type.

With `COc1cc(-n2nc(C(=O)N3CNC(=O)C3)cc2-c2cc(F)cc(Cl)c2)ccn1` [Example 25, 1-{[5-(3-Chloro-5-fluorophenyl)-1-(2-methoxypyridin-4-yl)-1H-pyrazol-3-yl]carbonyl}imidazolidin-4-one], the EC50 in the assay on HIV-1NL4-3 Wild Type is 0.004 µM; with HIV-1NL4-3 K103N-Y181C it was 0.04 µM; in the assay on HIV-1LAI Wild Type, 0.011 µM.

With `O=C1CN(C(=O)c2cc(-c3cc(Br)cc(OC(F)(F)F)c3)n(-c3ccccn3)n2)CN1` [Example 26, 1-({5-[3-Bromo-5-(trifluoromethoxy)phenyl]-1-(pyridin-2-yl)-1H-pyrazol-3-yl}carbonyl)imidazolidin-4-one], the EC50 in the assay with HIV-1NL4-3 Wild Type is 0.12 µM; with HIV-1NL4-3 K103N-Y181C, 0.071 µM; in the assay with HIV-1LAI Wild Type, more than 3.3 µM.

As for `O=C1CN(C(=O)c2cc(-c3cc(Br)cc(OC(F)(F)F)c3)n(-c3cccc(Cl)n3)n2)CN1` [Example 27, 1-({5-[3-Bromo-5-(trifluoromethoxy)phenyl]-(6-chloropyridin-2-yl)-1H-pyrazol-3-yl}carbonyl)imidazolidin-4-one], the EC50 was 0.098 µM in the assay on HIV-1NL4-3 Wild Type, 0.114 µM in the assay on HIV-1NL4-3 K103N-Y181C and more than 3.3 µM in the assay with HIV-1LAI Wild Type.
